Assay results from patent US6057371A, “Sigma receptor ligands and the use thereof” (Virginia Commonwealth University, priority 1992, dated 2000).
pIC50, pKi: −log10 of the molar value. Read-outs that look alike come from different tables or passages of the source.

Tests used:
[1] = biological target: T1, 5-HT1A receptor (Rattus norvegicus, UniProt P19327); experiment: biochemical; assay type: binding; design: 47: 529-540 (1986); from tissue; host or cells: brain tissue, inferred from the cited method (rat frontal cortex); conditions: for Ratio 5-HT1A /σ / pIC50: Table 5; for pIC50: read-out: 5-HT1A IC50; for IC50: Table 6, read-out: 5HT-1A (nM) MEAN
T1 sequence (P19327 1-422): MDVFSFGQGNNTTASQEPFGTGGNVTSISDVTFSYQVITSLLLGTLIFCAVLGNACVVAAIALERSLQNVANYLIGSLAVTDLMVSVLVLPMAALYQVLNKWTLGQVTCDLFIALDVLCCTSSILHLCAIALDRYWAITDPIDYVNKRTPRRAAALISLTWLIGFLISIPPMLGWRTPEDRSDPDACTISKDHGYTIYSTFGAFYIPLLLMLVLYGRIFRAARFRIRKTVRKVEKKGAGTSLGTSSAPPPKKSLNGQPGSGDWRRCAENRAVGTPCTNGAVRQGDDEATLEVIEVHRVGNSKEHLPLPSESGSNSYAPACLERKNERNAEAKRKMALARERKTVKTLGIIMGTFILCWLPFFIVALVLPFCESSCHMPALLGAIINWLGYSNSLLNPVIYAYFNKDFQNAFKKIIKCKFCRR
Description: Further sigma receptor binding assays against [^3 H]DTG and 5HT-1A binding assays were conducted according to the procedure outlined in the previous examples.

[2] = biological target: PCP receptor; experiment: PCP receptor binding, ^3 H-MK-801; design: species or system rat; conditions: Table 4
Description: PCP receptor binding assays against ^3 H-MK-801 were conducted as described by Keana et al., Proc. Natl. Acad. Sci (USA) 86: 5631-5635 (1989); Keana et al., Life Sciences 43: 965-973 (1988). For (+) ^3 H-MK-801 binding, 1 nM of radioligand was incubated with about 100 ug of thawed rat brain membrane protein for 4 hr at room temperature. The assays were carried out in 5 mM Tris/acetate and were stopped by rapid filtration through Whatman GF/B or Schleicher & Schuell no. 32 glass fiber filters (presoaked in 0.05% polyethylenamine).

[3] = biological target: T2, sigma-2 binding site (Cavia porcellus, UniProt H0V073); experiment: biochemical; design: species or system guinea pig; conditions: for pKi: Table 10, read-out: SIGMA-2 KI vs. 3H-DTG + PENTAZOCINE MEAN; for IC50: read-out: IC50 (nM) at sigma-2; for pIC50: Example 9, read-out: sigma-2 IC50
T2 construct: Guinea pig whole membrane preparations (P2 microsomal fraction); from tissue; host or cells: guinea pig membranes (P2 microsomal fraction), as described by Weber et al; brain inferred from the sister test b489
T2 sequence (H0V073 1-176): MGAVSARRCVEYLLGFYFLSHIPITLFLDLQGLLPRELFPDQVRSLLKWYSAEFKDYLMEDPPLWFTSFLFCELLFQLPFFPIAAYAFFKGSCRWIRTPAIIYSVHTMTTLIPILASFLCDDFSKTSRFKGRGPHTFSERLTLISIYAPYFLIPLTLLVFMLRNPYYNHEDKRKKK
Description: For the standard equilibrium assay, the mixtures were incubated for 30 min. at room temperature, then filtered and the radioactivity determined as described above.

[4] = biological target: T3, sigma-1 binding site (Cavia porcellus, UniProt Q60492); experiment: biochemical; design: species or system guinea pig; conditions: for IC50: read-out: IC50 (nM) at sigma-1
T3 construct: Guinea pig whole membrane preparations (P2 microsomal fraction); from tissue; host or cells: guinea pig membranes (P2 microsomal fraction), as described by Weber et al; brain inferred from the sister test b489
Description: [^3 H]DTG was purchased from DuPont/NEN.
The radioactivity on the filters was determined by scintillation spectrometry at an efficiency of about 50% using Cytoscint (ICN) scintillation fluid.

[5] = biological target: sigma receptor; experiment: Sigma receptor binding, [^3 H]DTG, brain membranes (both sigma-1 and sigma-2 sites); design: species or system guinea pig; conditions: for IC50: Table 6, [^3 H]DTG
[6] = Table 7, Phenyl-(CH2)x -NH--(CH2)y -Phenyl, read-out: Ki
[7] = Table 10, read-out: SIGMA-1 KI vs. 3H-PENTAZOCINE MEAN
[8] = less than about 0.1, see Table 10

T3 sequence (Q60492 whole entry): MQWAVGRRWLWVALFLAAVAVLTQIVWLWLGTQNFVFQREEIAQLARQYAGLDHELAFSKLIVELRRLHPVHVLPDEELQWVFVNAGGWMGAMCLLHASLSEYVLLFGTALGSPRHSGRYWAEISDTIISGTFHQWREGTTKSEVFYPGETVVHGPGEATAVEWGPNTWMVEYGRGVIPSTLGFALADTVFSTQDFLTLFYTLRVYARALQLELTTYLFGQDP

Row | SMILES | pIC50 [2] | pKi [3] | IC50 [1] | IC50 [5] | pKi [5, 6] | pKi [4, 7] | S1/S2 Ratio ([4]; Table 10, sigma-1/sigma-2) | IC50 ratio of sigma-1/sigma-2 (sigma-1 selective compounds) [4, 8] | further results
1 | c1ccc(CCCNC2CCc3ccccc3C2)cc1 (centres unmarked) [Compound 31] | < 5.00 | – | – | – | – | – | – | – | Ratio 5-HT1A /σ [1]: .92; pIC50 [1]: 7.71
2 | FC(F)(F)c1cccc(N2CCN(CCc3ccccc3)CC2)c1 [Compound 37] | < 5.00 | – | – | – | – | – | – | – | Ratio 5-HT1A /σ [1]: 2.6; pIC50 [1]: 7.69
3 | CCCN[C@H](C)Cc1ccccc1 [Compound 5] | < 5.00 | – | – | – | – | – | – | – | Ratio 5-HT1A /σ [1]: .88; pIC50 [1]: 5.82
4 | c1ccc(CCCCCCCNCc2ccccc2)cc1 [Compound 90, N-(7-phenylheptyl)benzylamine] | – | 7.41 | 3210 nM | 3.95 nM | 8.44 | – | – | – | IC50 ratio of sigma-1/sigma-2 (sigma-1 selective compounds) [4]: less than 0.1; sigma-2/sigma-1 selectivity [4]: 126; pKi ([4]; SIGMA-1 KI vs. 3H-P[…]): 8.64; S1/S2 Ratio ([4]; guinea pig, microsomes): 0.060
5 | CCOc1ccc(CC(C)NCCCc2ccccc2)cc1 (racemic) [Compound 83, N-(3-phenylpropyl)-1-(p-ethoxyphenyl)-2-propylamine] | – | 7.47 | 77.7 nM | 7.08 nM | – | 8.47 | 0.101 | less than 0.1 | IC50 ([3]; Table 17): 34 nM; IC50 ([4]; Table 12): 3.4 nM
6 | c1ccc(CCCCNCCc2ccccc2)cc1 [Compound 71, N-(4-phenylbutyl)phenethylamine] | – | 6.93 | 225 nM | 5.68 nM | 8.26 | 8.59 | 0.022 | less than 0.1 | pIC50 [3]: 6.92
7 | C[C@H](Cc1ccccc1)NCc1ccccc1 [Compound 6] | < 5.00 | – | – | – | – | – | – | – | Ratio 5-HT1A /σ [1]: 31; pIC50 [1]: 5.42
8 | CC(NCCCc1ccccc1)C(=O)c1ccccc1 (centres unmarked) [Compound 13] | < 5.00 | – | – | – | – | – | – | – | Ratio 5-HT1A /σ [1]: 2; pIC50 [1]: 6.54
9 | CN1CCN(CC/C=C\c2cccc(C(F)(F)F)c2)CC1 [Compound 105, N-(4-(3-trifluoromethyl)-3-(Z)-butenyl)-N-methylpiperazine] | – | 6.75 | 4960 nM | 9.5 nM | – | 8.82 | 0.008 | less than 0.1 | –
10 | c1ccc(CCCCN2CCN(Cc3ccccc3)CC2)cc1 [Compound 79, N-(4-phenylbutyl)-N'-benzylpiperazine] | – | 8.16 | 173 nM | 2.25 nM | – | 9.77 | 0.024 | less than 0.1 | –
11 | c1ccc(CCCCCNCCCc2ccccc2)cc1 [Compound 111, N-(5-phenylpentyl)-3-phenylpropylamine] | – | 8.01 | 92.2 nM | 2.73 nM | 8.74 | 9.55 | 0.029 | less than 0.1 | IC50 ([3]; Table 18): 9.8 nM; IC50 ([4]; Table 15): 0.28 nM
12 | c1ccc(CCCCCNCCCCc2ccccc2)cc1 [Compound 76, N-(5-phenylpentyl)-(4-phenyl)butylamine] | – | 7.17 | 119 nM | 2.65 nM | 8.60 | – | – | – | IC50 ([3]; Table 18): 48 nM; pIC50 [4]: 9.32; IC50 ratio of sigma-1/sigma-2 (sigma-1 selective compounds) [4]: less than 0.1; pKi ([4]; SIGMA-1 KI vs. 3H-P[…]): 9.32; S1/S2 Ratio ([4]; guinea pig, microsomes): 0.007
13 | c1ccc(CCCCCCCNCCc2ccccc2)cc1 [Compound 91, N-(7-phenylheptyl)phenethylamine] | – | 7.48 | 732 nM | 4.07 nM | 8.39 | 8.83 | – | – | IC50 ratio of sigma-1/sigma-2 (sigma-1 selective compounds) [4]: less than 0.1; S1/S2 Ratio ([4]; guinea pig, microsomes): 0.044; pKi ([4]; sigma-1 binding affinity): 8.82
14 | c1ccc(CCCCCNCc2ccccc2)cc1 [Compound 77, N-(5-phenylpentyl)benzylamine] | – | 7.46 | 759 nM | 2.07 nM | 8.70 | 9.49 | 0.009 | less than 0.1 | IC50 ([3]; Table 18): 34 nM; IC50 ([4]; Table 15): 0.32 nM
15 | CCCN(C)CCCCCc1ccccc1 [Compound 112, N-methyl-N-propyl-5-phenylpentylamine] | – | 7.39 | 8240 nM | 2.65 nM | – | – | – | – | pIC50 [3]: 7.40; pIC50 ([4]; Example 8, read-out: sigma-1 IC50, text): 9.54; pKi ([4]; read-out: SIGMA-1 KI vs. 3H-P[…]): 9.54; pKi ([5]; running text, Examples 5 and 6, listed as N-methyl-N-propyl-5-phenylpentylamine, read-out: sigma receptor Ki): 8.66
16 | c1ccc(CNCCCCCC2CCCCC2)cc1 [Compound 94, N-(5-cyclohexylpentyl)benzylamine] | – | 7.36 | 5550 nM | 4.02 nM | – | – | – | – | pIC50 [4]: 9.09; IC50 ratio of sigma-1/sigma-2 (sigma-1 selective compounds) [4]: less than 0.1; pKi ([4]; SIGMA-1 KI vs. 3H-P[…]): 9.09; S1/S2 Ratio ([4]; guinea pig, microsomes): 0.019; pKi ([5]; Examples 5 and 6, listed as N-benzyl-(5-cyclohexyl)pentylamine, read-out: sigma receptor Ki): 8.89; pKi ([5]; running text, Examples 5 and 6, read-out: sigma receptor Ki): 8.47
17 | C[C@@H](N)Cc1ccccc1 [Compound 28] | < 5.00 | – | – | – | – | – | – | – | –
18 | c1ccc(CCCCCN2CCC(Cc3ccccc3)CC2)cc1 [Compound 117, N-(5-phenylpentyl)-4-benzylpiperidine] | – | 8.56 | 781 nM | 2.11 nM | – | 9.24 | 0.210 | – | –
19 | C[C@@H](Cc1ccccc1)N(C)CCCc1ccccc1 [Compound 113, N-Methyl-N-(3-phenylpropyl)-1-phenylisopropylamine] | – | 8.31 | 2150 nM | 2.22 nM | – | 9.29 | 0.105 | less than 0.1 | –
20 | c1ccc(CCCCNCc2ccccc2)cc1 [Compound 75, N-(4-phenylbutyl)benzylamine] | – | 6.79 | 255 nM | 13.6 nM | 7.89 | 8.02 | 0.059 | less than 0.1 | pIC50 [3]: 6.80
